In publication PMC8382222, “Easy Surface Functionalization and Bioconjugation of Peptides as Capture Agents of a Microfluidic Biosensing Platform for Multiplex Assay in Serum” (Bioconjugate Chemistry, 2021):
Positions of bridges follow the written chain, without caps; N, C: chain ends. Residues, ends and D or L forms follow the SMILES beside them.

Tests used:
CRP protein = biological target: T1, CRP protein (Homo sapiens, UniProt P02741); test: One-step injection SPR (Taylor dispersion), CRP immobilized; format: binding
T1 construct: purchased Sigma-Aldrich
T1 sequence (P02741 19-224): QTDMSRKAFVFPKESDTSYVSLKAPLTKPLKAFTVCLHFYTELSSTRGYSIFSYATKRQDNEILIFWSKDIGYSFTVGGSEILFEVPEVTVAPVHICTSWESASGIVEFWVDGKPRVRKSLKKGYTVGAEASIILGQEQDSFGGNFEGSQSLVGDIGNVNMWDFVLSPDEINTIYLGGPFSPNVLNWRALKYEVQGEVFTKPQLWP
Protocol: (§1) SPR experiments were performed by one-step injection with the aim of evaluating and confirming the binding constant between peptide and biomarkers. Analyte concentrations of 30 μM of VEFG-114 peptide and 245 μM of CRP-1 peptide were used. The one-step experiment was based on the Taylor dispersion theory, so a unique concentration of peptide was dispersed into a running buffer directly in the flow cell in order to have a final sigmoidal profile.[41],[42] […] For the G6 peptide, the affinity against the TNFα protein was previously estimated by our research group in a recent study (data not shown).[18]
SPR experiments were performed by one-step injection. VEGF and CRP protein were immobilized at a concentration of 100 μg/mL in a 10 mM acetate buffer pH 4.5 and 3.5, respectively, (flow 10 μL/min, injection time 20 min) on a COOH1 SensiQ sensor chip, using EDC/NHS chemistry (0.4 M EDC/0.1 M NHS, flow 25 μL/min, injection time 4 min), achieving an 800 RU signal. Groups of reactive residues were deactivated by treatment with ethanolamine hydrochloride 1 M, pH 8.5. The reference channel was prepared by activation with EDC/NHS and deactivation with ethanolamine. Analyte concentrations of 30 μM for VEFG-114 peptide and 245 μM for CRP-1 peptide were used with a flow rate of 100 μL min^–1 and a 300 s dissociation time. […]

VEGF protein = biological target: T2, VEGF protein (Homo sapiens, UniProt P15692); test: One-step injection SPR (Taylor dispersion), VEGF immobilized; format: binding
T2 construct: purchased Peprotech
T2 sequence (P15692 1-191 isoform P15692-4): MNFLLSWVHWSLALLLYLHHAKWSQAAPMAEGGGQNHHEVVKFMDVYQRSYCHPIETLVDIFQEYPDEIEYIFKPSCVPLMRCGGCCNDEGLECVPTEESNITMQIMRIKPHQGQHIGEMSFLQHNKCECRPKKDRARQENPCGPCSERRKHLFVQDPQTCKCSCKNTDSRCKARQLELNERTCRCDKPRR
Protocol: as §1
Reagents for peptide synthesis (Fmoc-protected amino acids, resins, activation, and deprotection reagents) were purchased from Iris Biotech GmbH (Waldershofer Str. 49–51, 95615); EDC/NHS, PDMS, and CRP (C- Reactive Protein) were from Sigma-Aldrich. VEGF (Recombinant Human VEGF165) was purchased from Peprotech. Anti-CRP (Anti-C Reactive Protein antibody (FITC) (ab19174)) and Anti-VEGF (Anti-Recombinant Human VEGF antibody (FITC)) were from Abcam. TNF-α and Anti-TNF-α (Anti-Tumor Necrosis Factor-α antibody (FITC)) were from Prospec. Solvents for peptide synthesis and HPLC analyses were purchased from Sigma-Aldrich; reversed-phase columns for peptide analysis and the LC–MS system were supplied, respectively, from Agilent Technologies and Waters (Milan, Italy). […]

dissociation value (in words) (CRP protein; 245 μM CRP-1 peptide, 1:1 interaction model) | Kd (CRP protein; CRP immobilized at 100 μg/mL (10 mM acetate pH 3.5) on COOH1 SensiQ chip, 245 μM CRP-1 analyte, 100 μL/min, 300 s dissociation, 1:1 binding model, QDAT, mean ± SD) [µM] | dissociation value (in words) (VEGF protein; 30 μM peptide, 1:1 interaction model) | Kd (VEGF protein; VEGF immobilized at 100 μg/mL (10 mM acetate pH 4.5) on COOH1 SensiQ chip, 30 μM VEGF-114 analyte, 100 μL/min, 300 s dissociation, 1:1 binding model, QDAT, mean ± SD) [µM] | SMILES
low micromolar | 12 ± 0.1 | – | – | CC(C)C[C@H](NC(=O)[C@H](CCC(N)=O)NC(=O)[C@@H]1CSSC[C@H](NC(=O)[C@H](C)NC(=O)[C@H](Cc2c[nH]c3ccccc23)NC(=O)[C@@H](N)CCC(=O)O)C(=O)N[C@@H](CC(N)=O)C(=O)N[C@@H](CC(=O)O)C(=O)N[C@@H](CCCNC(=N)N)C(=O)NCC(=O)N[C@@H](Cc2ccccc2)C(=O)N[C@@H](CC(N)=O)C(=O)N1)C(=O)N[C@@H](CCC(N)=O)C(=O)N[C@@H](CCCNC(=N)N)C(N)=O [CRP-1] (H-EWACNDRGFNCQLQR-NH2; disulfide 4-11)
– | – | low micromolar | 10 ± 0.7 | CC[C@H](C)[C@@H]1NC(=O)[C@H](CC(=O)O)NC(=O)[C@@H](NC(=O)[C@H](CC(N)=O)NC(=O)[C@@H]2CCCN2C(=O)[C@H](CCC(=O)O)NC(=O)[C@@H](N)C(C)C)CSSC[C@@H](C(=O)N[C@@H](Cc2ccccc2)C(=O)N[C@@H](CCC(=O)O)C(=O)N[C@@H](CCCNC(=N)N)C(=O)N[C@@H](CC(C)C)C(N)=O)NC(=O)[C@H](CCC(=O)O)NC(=O)[C@H](Cc2c[nH]c3ccccc23)NC(=O)[C@H](CCC(=O)O)NC(=O)[C@H](Cc2c[nH]c3ccccc23)NC(=O)[C@H](CCSC)NC(=O)[C@H](C(C)C)NC(=O)[C@H](Cc2c[nH]cn2)NC1=O [VEGF-114] (H-VEPNCDIHVMWEWECFERL-NH2; disulfide 5-15)
